Measured values as given in US20180111913A1, “SUBSTITUTED BENZOFURAN DERIVATIVES AS NOVEL ANTIMYCOBACTERIAL AGENTS” (priority 2015, published 2018).
≈ marks a conversion by molar mass, not a printed value. Read-outs that look alike come from different tables or passages of the source.

Key:
M tuberculosis = type: in vivo, Mycobacterium tuberculosis in GKO mice
[1] = GKO mice, 300 mg/kg, 200 mg/kg from day 4; seizures
[2] = test system: human dermal fibroblast (HDF) cells; conditions: for Survival vs. Control: HDF cell survival relative to DMSO-only control at the first (or only) Non-Toxic Concentration value; for Non-Toxic Concentration: human, 48 h
[3] = target: Mtb Pks13-TE domain (wild-type) (Mycobacterium tuberculosis, UniProt I6X8D2); test: biochemical; type: biochemical
Mtb strain mc^27000 = test: microbe, parasite or virus in culture; type: cell-based, Mycobacterium tuberculosis
Mtb (Erdman lux strain) = type: in vivo, Mycobacterium tuberculosis in female Balb/C mice
Mtb isolate H37Rv = conditions: whole-cell screen; cited from earlier work
[4] = Pks13-TE, 20 μM 4-MUH, read-out: IC50
[5] = Pks13 enzyme inhibition, read-out: Pks13 IC50
[6] = Mycobacterium tuberculosis, read-out: Pks13 MIC
[7] = Mycobacterium tuberculosis, Mtb mc^27000, liquid medium, 96-well plates, read-out: MIC

Chain of Mtb Pks13-TE domain (wild-type) (I6X8D2 1451-1733): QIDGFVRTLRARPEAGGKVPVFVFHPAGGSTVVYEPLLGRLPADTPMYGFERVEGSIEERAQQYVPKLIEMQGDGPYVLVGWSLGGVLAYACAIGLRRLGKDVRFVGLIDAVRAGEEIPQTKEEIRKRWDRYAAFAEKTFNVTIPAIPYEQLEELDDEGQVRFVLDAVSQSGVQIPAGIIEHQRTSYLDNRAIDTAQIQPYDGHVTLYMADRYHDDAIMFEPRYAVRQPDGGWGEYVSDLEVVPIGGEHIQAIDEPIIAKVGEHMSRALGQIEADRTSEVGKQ

| Structure (SMILES) | Lung CFU (M tuberculosis; mouse, in vivo) | Lung RLU (M tuberculosis; mouse, in vivo) | Spleen CFU (M tuberculosis; mouse, in vivo) | Spleen RLU (M tuberculosis; mouse, in vivo) | Survival vs. Control [2] [%] | Non-Toxic Concentration [2] [µM] | IC50 [3, 4] [nM] | IC50 [3, 5] [nM] | MIC (Mtb strain mc^27000; [6]) [µM] | Diff of Means, Control vs. treatment, Lung (M tuberculosis; mouse, in vivo) | Diff of Means, Control vs. treatment, Spleen (M tuberculosis; mouse, in vivo) | MIC (Mtb strain mc^27000; [7]) [µM] | further results |
| --- | --- | --- | --- | --- | --- | --- | --- | --- | --- | --- | --- | --- | --- |
| CNC(=O)c1c(-c2ccccc2)oc2ccc(O)c(CN3CCCCC3)c12 [compound 17] | 7.21 | 4.24 | 3.01 | 1.85 | 103 | 50 | 290 | 290 | 0.2 (≈ 0.0729 µg/mL) | – | – | – | log CFU reduction versus untreated control in the lungs (M tuberculosis; GKO mice, 300 mg/kg then 200 mg/kg from day 4, sacrificed day 8 of dosing, no drug clearance period, lungs): 0.53 log CFU; log CFU reduction versus untreated control in the spleen (M tuberculosis; GKO mice, 300 mg/kg then 200 mg/kg from day 4, sacrificed day 8 of dosing, no drug clearance period, spleen): 3.72 log CFU; toxicity observed during dosing [1]: apparent toxicity; growth inhibition in HDF cells relative to DMSO only control [2]: did not show any growth inhibition; IC50 ([3]; Mtb Pks13-TE domain, mean ± s.d. of triplicates, read-out: IC50): 290 ± 10 nM; MIC (Mtb strain mc^27000; Mtb mc^27000, liquid medium, 96-well plates, listed as compound L, read-out: MIC): 0.2 µM (≈ 0.0729 µg/mL); MIC (Mtb strain mc^27000; Mtb mc^27000, liquid medium, 96-well plates, read-out: MIC): 2 µM (≈ 0.729 µg/mL); MIC (Mtb strain mc^27000; Mycobacterium tuberculosis, […], mean ± s.d. of triplicates, NI: no inhibition, read-out: MIC): 0.2 µM (≈ 0.0729 µg/mL); MIC lower than that of the test compound (Mtb strain mc^27000; relative to test compound): > 10 fold |
| NNC(=O)c1ccncc1 [isoniazid, reference compound] | 5.15 | 3.51 | 2.49 | 1.77 | – | – | – | – | – | 3.013 | 3.644 | – | log CFU reduction in the spleen (M tuberculosis; mouse, in vivo): 4.16 log CFU; log CFU reduction relative to untreated control in the lungs (M tuberculosis; mouse, in vivo): 3.02 log CFU; log reduction in RLU (luciferase assay) (M tuberculosis; mouse, in vivo, 25 mg/kg): 1.01 log; log reduction (CFU) in the spleen (Mtb (Erdman lux strain); Balb/C mice, isoniazid control 25 mg/kg, 4 weeks, spleen): 2.52 log; Diff of Means, Control vs. treatment (Mtb (Erdman lux strain); […], organ not given, values match spleen reductions of b137): 2.523; Lung CFU (Mtb (Erdman lux strain); mouse, in vivo): 4.98; Lung RLU (Mtb (Erdman lux strain); mouse, in vivo): 2.37; Spleen CFU (Mtb (Erdman lux strain); mouse, in vivo): 2.35; Spleen RLU (Mtb (Erdman lux strain); mouse, in vivo): 1.59; log reduction (CFU) in the lungs (Mtb (Erdman lux strain); mouse, in vivo): 1.11 log |
| CNC(=O)c1c(-c2ccc(O)cc2)oc2cc(O)cc(CN3CCCCC3)c12 [compound 47] | 8.39 | 6.09 | 6.84 | 4.45 | 98 | 50 | 570 | – | 1 (≈ 0.38 µg/mL) | – | – | 1 (≈ 0.38 µg/mL) | activity in the lungs or the spleen, in words (M tuberculosis; GKO mice, 300 mg/kg dosing): did not show any activity |
| CNC(=O)c1c(-c2ccc(OC)cc2)oc2ccc(O)c(CN3CCCCC3)c12 [compound 31] | 7.33 | 5.06 | 5.11 | 2.59 | 111 | 50 | 260 | 260 | 1.1 (≈ 0.434 µg/mL) | 0.834 | 2.623 | 1.1 (≈ 0.434 µg/mL) | log CFU reduction in the lungs vs. untreated controls (M tuberculosis; GKO mice, 100 mg/kg oral once daily, 9 days, lungs): 0.84 log CFU; log CFU reduction in the spleen relative to untreated controls (M tuberculosis; GKO mice, 100 mg/kg oral once daily, 9 days, spleen): 1.54 log CFU; Diff of Means, Inhibitor 31 vs. Inhibitor 32, Lung (M tuberculosis; mouse, in vivo): 0.340; Diff of Means, Inhibitor 31 vs. Inhibitor 32, Spleen (M tuberculosis; mouse, in vivo): 0.522; Diff of Means, Inhibitor 31 vs. Isoniazid, Lung (M tuberculosis; mouse, in vivo): 2.179; Diff of Means, Inhibitor 31 vs. Isoniazid, Spleen (M tuberculosis; mouse, in vivo): 2.101 |
| CCOC(=O)c1c(-c2ccccc2)oc2ccc(O)c(CN3CCC(C)CC3)c12 [test compound] | – | – | – | – | – | – | – | – | – | – | – | – | MIC against Mtb isolate H37Rv (Mtb isolate H37Rv): 2.0 µM (≈ 0.787 µg/mL) |
